SMILES strings stand for the structures. pIC50: −log10 of the molar value. Like-named read-outs stand apart in the source and are kept apart here.

In assay [1] the target is Epidermal Growth Factor Receptor (EGFR) (Homo sapiens (Human), UniProt P00533). Kind of assay: EGFR kinase assay (TR-FRET). The class given is biochemical. The text has this: EGFR inhibitory activity of compounds of the present invention was quantified employing the TR-FRET based EGFR assay as described in the following paragraphs.
Epidermal Growth Factor Receptor (EGFR) affinity purified from human carcinoma A431 cells (Sigma-Aldrich, #E3641) was used as kinase. As substrate for the kinase reaction the biotinylated peptide biotin-Ahx-[…] (SEQ ID NO 5) (C-terminus in amid form) was used which can be purchased e.g. form the company Biosyntan GmbH (Berlin-Buch, Germany).
For the assay 50 nL of a 100 fold concentrated solution of the test compound in DMSO was pipetted into a black low volume 384 well microtiter plate (Greiner Bio-One, Frickenhausen, Germany), 2 μL of a solution of EGFR in aqueous assay buffer [50 mM Hepes/HCl pH 7.0, 1 mM MgCl2, 5 mM MnCl2, 0.5 mM activated sodium ortho-vanadate, 0.005% (v/v) Tween-20]were added and the mixture was incubated for 15 min at 22° C. to allow pre-binding of the test compounds to the enzyme before the start of the kinase reaction. […] The concentration of EGFR was adjusted depending of the activity of the enzyme lot and was chosen appropriate to have the assay in the linear range, typical concentration were about 3 U/ml. The reaction was stopped by the addition of 5 μl of a solution of HTRF detection reagents (0.1 μM streptavidine-XL665 [Cis Biointernational] and 1 nM PT66-Tb-Cryptate, an terbium-cryptate labelled anti-phospho-tyrosine antibody from Cis Biointernational [instead of the PT66-Tb-cryptate PT66-Eu-Chelate from Perkin Elmer can also be used]) in an aqueous EDTA-solution (80 mM EDTA, 0.2% (w/v) bovine serum albumin in 50 mM HEPES pH 7.5).
The resulting mixture was incubated 1 h at 22° C. to allow the binding of the biotinylated phosphorylated peptide to the streptavidine-XL665 and the PT66-Eu-Chelate. Subsequently the amount of phosphorylated substrate was evaluated by measurement of the resonance energy transfer from the PT66-Tb-Cryptate to the streptavidine-XL665. Therefore, the fluorescence emissions at 620 nm and 665 nm after excitation at 337 nm were measured in a HTRF reader, e.g. a Pherastar (BMG Labtechnologies, Offenburg, Germany) or a Viewlux (Perkin-Elmer). The ratio of the emissions at 665 nm and at […] was taken as the measure for the amount of phosphorylated substrate.

The target in assay [2] is K-Ras^G12C : hSOS1 interaction (Homo sapiens, UniProt Q07889). Briefly: Biochemical assay 1: K-Ras^G12C interaction assay with hSOS1 (HTRF). Type of assay: binding. Background: In TR-FRET formats the signal depends on donor and acceptor labels being close together.
For assay [3], the target named is human SOS1 (loading of human K-Ras^G12C-GDP with fluorescent GTP-analog) (Homo sapiens, UniProt Q07889). Kind of assay: Biochemical assay 3: K-Ras^G12C activation assay by hSOS1 (HTRF). As to conditions: no GTP; read-out: Assay 3 (KRAS-Activation by SOS no GTP) activity expressed as IC50.
For assay [4], the target named is human SOS1 (nucleotide exchange of K-Ras^G12C) (Homo sapiens, UniProt Q07889). Kind of assay: Biochemical assay 2: K-Ras^G12C activation assay by hSOS1 at high GTP concentration (HTRF). The conditions noted are these: E-notation values; unit inferred; 50 μM GTP; read-out: Assay 2 (KRAS-Activation, high GTP) IC50.

Sequence of Epidermal Growth Factor Receptor (EGFR) (P00533 25-1210): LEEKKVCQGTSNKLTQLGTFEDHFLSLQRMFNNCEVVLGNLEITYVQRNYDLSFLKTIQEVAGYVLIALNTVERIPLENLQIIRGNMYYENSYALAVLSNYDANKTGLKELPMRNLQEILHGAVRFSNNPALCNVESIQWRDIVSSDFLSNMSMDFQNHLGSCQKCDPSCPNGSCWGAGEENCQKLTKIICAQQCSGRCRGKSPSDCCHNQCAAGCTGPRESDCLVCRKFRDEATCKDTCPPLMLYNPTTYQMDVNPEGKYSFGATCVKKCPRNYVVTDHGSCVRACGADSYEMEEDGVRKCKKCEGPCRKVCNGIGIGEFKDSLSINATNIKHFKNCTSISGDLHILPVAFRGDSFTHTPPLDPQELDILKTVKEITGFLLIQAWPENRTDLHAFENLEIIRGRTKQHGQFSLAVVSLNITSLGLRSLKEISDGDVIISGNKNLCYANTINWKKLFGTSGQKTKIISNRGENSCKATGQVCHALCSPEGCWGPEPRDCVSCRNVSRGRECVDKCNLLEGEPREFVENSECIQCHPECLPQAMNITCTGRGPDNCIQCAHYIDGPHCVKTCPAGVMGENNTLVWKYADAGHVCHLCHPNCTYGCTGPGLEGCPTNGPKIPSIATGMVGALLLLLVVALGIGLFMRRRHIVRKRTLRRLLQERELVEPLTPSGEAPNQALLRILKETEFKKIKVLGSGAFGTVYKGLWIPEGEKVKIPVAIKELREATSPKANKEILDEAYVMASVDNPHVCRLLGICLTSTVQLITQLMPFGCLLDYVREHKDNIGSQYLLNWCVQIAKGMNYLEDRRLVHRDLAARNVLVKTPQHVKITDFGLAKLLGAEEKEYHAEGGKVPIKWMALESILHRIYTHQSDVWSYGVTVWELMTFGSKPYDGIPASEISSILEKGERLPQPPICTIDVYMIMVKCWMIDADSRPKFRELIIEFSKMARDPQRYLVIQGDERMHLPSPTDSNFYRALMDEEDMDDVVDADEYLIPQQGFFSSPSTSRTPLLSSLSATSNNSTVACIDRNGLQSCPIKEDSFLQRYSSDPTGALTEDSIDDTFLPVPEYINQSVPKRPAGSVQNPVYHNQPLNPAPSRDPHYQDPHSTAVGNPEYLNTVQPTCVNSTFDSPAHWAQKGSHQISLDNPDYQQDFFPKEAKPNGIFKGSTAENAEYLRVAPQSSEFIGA

On to `COc1cc2nc(C)nc(NC(C)c3cccc4ncccc34)c2cc1OC` (stereo not drawn) [Example 212, 6,7-dimethoxy-2-methyl-N-[1-(quinolin-5-yl)ethyl]quinazolin-4-amine], for which the IC50 in assay [1] (values given in μM, read-out: EGFR kinase inhibition IC50) was more than 20 µM. Besides, the figures for the pIC50 in assay [2] (read-out: Assay 1 (KRAS-SOS Interaction) activity expressed as IC50) and in assay [3] were 6.19 and 5.58, respectively.
For `Cc1nc(NC(C)c2ccc(-c3ccccc3CN(C)C)s2)c2cc([N+](=O)[O-])ccc2n1` (stereo not drawn) [Example 421, N-[1-(5-{2-[(dimethylamino)methyl]phenyl}thiophen-2-yl)ethyl]-2-methyl-6-nitroquinazolin-4-amine], the negative-log IC50 (pIC50) in assay [1] (E-notation values, unit inferred, read-out: EGFR-assay IC50) was less than 4.70; in assay [2] (E-notation values, unit inferred, read-out: Assay 1 (KRAS-SOS interaction) IC50) it was 6.84; in assay [4], 6.65.

The IC50 is the point on the concentration scale where inhibition reaches its midpoint. Usually pIC50 stands for −log10 of the IC50, conventionally taken in molar units.

For the origin of these results see patent US20240083857A1, “2-Methyl-Quinazolines” (Bayer Pharma Aktiengesellschaft, priority 2017, published 2024).
